# From patent US20050053912A1, “Methods for inducing reversible stasis” (priority 2001, published 2005)
# Legend:
# zebrafish embryos [1] = assay: Induction of and exit from stasis in zebrafish embryos under normoxic conditions; format: in vivo
# Experimental: This example describes the identification of a compound that causes fish embryos to enter stasis. In this example, fish were maintained at 28° C. in fish water or embryo media. Briefly, zebrafish embryos at approximately 8 hpf were pre-treated with Pronase to remove the chorion. Approximately 10 pre-treated fish were placed in 30 mm petrie dishes in either fish water or embryo media. Dilutions of Rotenone (Sigma, St. Louis, Mo.) were added to the pre-treated fish in concentrations from approximately 10 μg/ml reduced in half-logs concentrations down to approximately 10 ng/ml. The embryos were exposed to the compound for approximately 12 hours at 28° C. under normoxic conditions. As a control, pre-treated embryos were incubated in normoxic conditions at 28° C. for the same period of time. After incubation with the compound, the embryos were assessed visually for entry into stasis. […] The Rotenone-treated embryos were removed into fresh medium and incubated at 28° C. under normoxic conditions for 24 hours. The embryos were then assessed visually for the ability to exit stasis.
# zebrafish embryos [2] = assay: Viability of zebrafish embryos treated with compound, in anoxia versus normoxia; format: in vivo; conditions: approx. 8 hpf embryos
# Excerpt: Oxygen Deprivation Environments. For all studies an anaerobic bio-bag type A environmental chamber was used according to manufacturer's instructions (Becton Dickinson). This method contains a resazurin indicator that allows one to determine when the anoxic environment is established. A second method was used to verify suspended animation results. This method involved use of a chamber perfused with 100% N2 gas (Airgas Inc.) and monitored for oxygen using a FYRITE O2 Gas Analyzer (Bacharach, Pittsburgh, Pa.) and Resazurin Indicator (Becton Dickinson). By using these anoxia-producing methods, it took approximately two hours for the oxygen concentration to reach zero. Development of embryos could continue for another 1-2.5 hours, depending on the amount of water present.
# This example describes the identification of a compound that causes fish embryos subjected to an anoxic/hypoxic environment to die. In this example, fish were maintained at 28° C. in fish water or embryo media (Westerfield, 1995). Briefly, zebrafish embryos at approximately 8 hpf were pre-treated with Pronase to remove the chorion. Approximately 10 pre-treated fish were placed in each 30 mm petrie dishes in either fish water or embryo media. […] After 24 hours in anoxia, the embryos were returned to room air and viability was assessed visually. […]
Molecule,"entry into stasis assessed visually (zebrafish embryos [1]; 0.1 μg/ml, approx. 8 hpf embryos, approx. 12 hours at 28° C. under normoxic conditions)","ability to exit stasis assessed visually (zebrafish embryos [1]; embryos removed into fresh medium, 28° C., normoxic conditions for 24 hours)","viability assessed visually after anoxia (zebrafish embryos [2]; 500 nM, approx. 2 h pre-exposure, 24 hours anoxia at 28° C., then returned to room air)","viability, treated embryos not placed in anoxia (zebrafish embryos [2]; normoxic conditions at 28° C. for 24 hours (control))"
C=C(C)[C@H]1Cc2c(ccc3c2O[C@@H]2COc4cc(OC)c(OC)cc4[C@@H]2C3=O)O1 [Rotenone],enter stasis,reversible stasis inducer,,
"1H, 5H, 11H, 15H-Xantheno[2,3,4-ij:5,6,7-i′j′]diquinolizin-18-ium, 9-[4-(chloromethyl)phenyl]-2,3,6,7,12,13,16,17-octahydro-, chloride [M[…]]",,,not viable,viable
